Legend:
recombinant Aurora A = target: T1, recombinant Aurora A (Homo sapiens, UniProt O14965); assay: Aurora A (Aurora 2) Inhibition Assay (Z'-Lyte); type: biochemical; settings: 100 μM compound; ATP 10 μM; 1 h
T1 construct: purchased Upstate, Lake Placid, N.Y
T1 sequence (O14965 1-403): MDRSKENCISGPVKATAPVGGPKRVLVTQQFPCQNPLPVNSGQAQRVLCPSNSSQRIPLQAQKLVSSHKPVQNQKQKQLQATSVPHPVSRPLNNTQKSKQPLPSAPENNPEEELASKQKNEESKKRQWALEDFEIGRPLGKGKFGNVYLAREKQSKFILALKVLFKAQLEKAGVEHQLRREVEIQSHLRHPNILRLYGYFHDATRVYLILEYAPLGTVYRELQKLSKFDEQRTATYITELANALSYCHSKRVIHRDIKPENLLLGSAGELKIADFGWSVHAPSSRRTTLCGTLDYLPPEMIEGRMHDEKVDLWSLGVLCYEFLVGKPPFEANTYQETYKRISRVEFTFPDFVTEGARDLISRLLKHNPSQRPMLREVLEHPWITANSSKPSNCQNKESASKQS
Procedure: Compounds were tested for their potency against recombinant Aurora A (Upstate, Lake Placid, N.Y.) using the PanVera Z'-Lyte kinase assay kit-Ser/[…] peptide (Invitrogen, Carlsbad, Calif.). […] Assays were carried out in half-area 96-well white polystyrene assay plates (Corning, Corning, N.Y.) in a final volume of 20 μl. The reaction was allowed to proceed for 1 h at room temperature in the dark, at which point the development reagent and stop reagent were added according to the manufacturer's instructions. Coumarin (Ex. 400 nm, Em. 465 nm) and fluorescein (Ex. 400 nm, Em. 565 nm) fluorescence values were measured on a SpectraFluor Plus plate reader (Tecan, Durham, N.C.). The emission ratio (coumarin/fluorescein) was determined and used to calculate the percent phosphorylation for each well. […] Typically 20-40% of the substrate was phosphorylated in wells without inhibitor. Dose-response curves of relative Aurora A activity vs. inhibitor concentration were plotted with Grafit (Erithacus Software, Horley, Surrey, UK).

HCT-116 cell growth = assay: Whole Cell Cytotoxicity Assay: Sulforhodamine B; type: cell-based, Human; settings: 100 μM compound, 96 hours, SRB staining; for inhibition at 100 µM: Homo sapiens, HCT-116
Procedure: Human tumor-derived cell lines, HCT116 or MCF7 (ATCC) were plated in a 96 well plate in DMEM containing 10% fetal bovine serum and 2 mM L-glutamine at a density of 500 HCT116 cells or 1,000 MCF7 cells per well and incubated at 37° C., 5% CO2, for 24 hours prior to the addition of experimental compounds. Compounds were added using the dilution series indicated to duplicate plates and the cells were incubated in media plus compound for 96 hours. An additional plate was fixed in 10% TCA at the time of the addition of compound to provide a measurement of the cell population at time zero, the time of drug addition. Following the 96 hour incubation, cells were fixed in situ by gently aspirating off the culture media and then adding 50 ul of ice cold 10% TCA per well and incubation at 4° C. for 60 minutes. The plates were washed with tap water five times and allowed to air dry for 5 minute. 50 ul of a 0.4% (w/v) Sulforhodamine B solution in 1% (v/v) acetic acid was added per well and the cells were incubated for 30 minutes at room temperature. Following staining, plates were washed four times with 1% acetic acid to remove any unbound dye and then allowed to air dry for 5 minutes. The stain was solubilized with 100 ul of 10 mM Tris pH 10.5 per well and placed on an orbital rotator for 5 minutes. The absorbance was read at 570 nm. Percentage growth was calculated using the absorbance readings from the time zero plate (Tz) and the dilution series plate […] which included a column of cells grown in media without compound as a control (C) using the formulas: [(Ti−Tz)/(C−Tz)]×100 for concentrations for which Ti>/=Tz [(Ti−Tz)/Tz]×100 for concentrations for which Ti<Tz.
Three dose response parameters were calculated for each experimental agent. Growth inhibition of 50% (GI50) was calculated from [(Ti−Tz)/(C−Tz)]×100=50, which was the drug concentration resulting in a 50% reduction in the net protein increase (as measured by SRB staining) in control cells during the drug incubation. The drug concentration resulting in total growth inhibition (TGI) was calculated from Ti=Tz. The LC50 (concentration of drug resulting in a 50% reduction in the measured protein at the end of the drug treatment as compared to that at the beginning) indicating a net loss of cells following treatment was calculated from [(Ti−Tz)/Tz]×100=−50. Values are calculated for each of these three parameters if the level of activity was reached; however, if the effect was not reached or was exceeded, the value for that parameter is expressed as greater or less than the maximum or minimum concentration tested.

| inhibition at 100 µM (recombinant Aurora A) [%] | % Inhibition of Aurora A @ 100 μM (recombinant Aurora A) [%] | Compound | inhibition at 100 µM (HCT-116 cell growth) [%] | % Inhibition of HCT-116 cell growth @ 100 μM (HCT-116 cell growth) [%] |
| --- | --- | --- | --- | --- |
| 99 |  | Cc1cc(Nc2nc(/C=C/c3ccc(Cl)cc3)nc(N3CCN(C)CC3)c2N)n[nH]1 [Example 172] | 99 |  |
| 100 |  | Cc1cc(Nc2cc(N3CCN(C)CC3)nc(/C=C/c3ccc(Br)cc3)n2)n[nH]1 [Example 103, 2-(4-bromostyryl)-N-(5-methyl-1H-pyrazol-3-yl)-6-(4-methylpiperazin-1-yl)pyrimidin-4-amine] | 84 |  |
| 93 |  | Cc1cc(Nc2nc(/C=C/c3ccccc3)nc(N3CCNCC3)c2N)[nH]n1 [Example 13, N-(3-methyl-1H-pyrazol-5-yl)-6-(piperazin-1-yl)-2-[(E)-2-phenylvinyl]pyrimidin-4,5-diamine] |  |  |
| 100 |  | Cc1cc(Nc2cc(NC3CCOCC3)nc(/C=C/c3ccccc3)n2)n[nH]1 [Example 99, N^4-(tetrahydro-2H-pyran-4-yl)-N^6-(5-methyl-1H-pyrazol-3-yl)-2-styrylpyrimidine-4,6-diamine] | 98 |  |
| 100 |  | Cc1cc(Nc2nc(/C=C/c3ccccc3)nc(N3CCOCC3)c2N)[nH]n1 [Example 12, N-(3-methyl-1H-pyrazol-5-yl)-6-(morpholin-4-yl)-2-[(E)-2-phenylvinyl]pyrimidin-4,5-diamine] | 99 |  |
| 98 |  | Cc1cc(Nc2nc(/C=C/c3ccccc3)nc(Nc3cc(C)n[nH]3)c2N)[nH]n1 [Example 11] | 99 |  |
| 100 |  | COc1ccc(/C=C/c2nc(Nc3cc(C)[nH]n3)cc(N3CCN(C)CC3)n2)cc1 [Example 160, 2-(4-methoxystyryl)-N-(5-methyl-1H-pyrazol-3-yl)-6-(4-methylpiperazin-1-yl)pyrimidin-4-amine] | 97 |  |
| 99 |  | CCOC(=O)c1nc(/C=C/c2ccc(Cl)cc2)nc(Nc2cc(C)n[nH]2)c1N [Example 19, ethyl 5-amino-2-[(E)-2-(4-chlorophenyl)vinyl]-6-[(3-methyl-1H-pyrazol-5-yl)amino]pyrimidine-4-carboxylate] | 96 |  |
| 97 |  | CCOC(=O)c1nc(/C=C/c2cccc(F)c2)nc(Nc2cc(C)n[nH]2)c1N [Example 22, ethyl 5-amino-2-[(E)-2-(3-fluorophenyl)vinyl]-6-[(3-methyl-1H-pyrazol-5-yl)amino]pyrimidine-4-carboxylate] | 85 |  |
| 100 |  | Cc1cc(Nc2cc(NCCN3CCN(C)CC3)nc(/C=C/c3ccccc3)n2)n[nH]1 [Example 77, N^4-(5-methyl-1H-pyrazol-3-yl)-N^6-(2-(4-methylpiperazin-1-yl)ethyl)-2-styrylpyrimidine-4,6-diamine] | 99 |  |
| 99 |  | COC(=O)c1ccc(/C=C/c2nc(Nc3cc(C)[nH]n3)c([N+](=O)[O-])c(N3CCN(C)CC3)n2)cc1 [Example 38, methyl 4-((E)-2-{4-(4-methylpiperazin-1-yl)-6-[(3-methyl-1H-pyrazol-5-yl)amino]-5-nitropyrimidin-2-yl}vinyl)benzoate] |  |  |
| 100 |  | Cc1cc(Nc2nc(/C=C/c3ccc(F)cc3)nc(N3CCN(C)CC3)c2N)n[nH]1 [Example 173] | 98 |  |
| 100 |  | Cc1cc(Nc2cc(Nc3ccc(F)cc3)nc(/C=C/c3ccccc3)n2)n[nH]1 [Example 86, N^4-(4-fluorophenyl)-N^6-(5methyl-1H-pyrazol-3-yl)-2-styrylpyrimidine-4,6-diamine] | 98 |  |
| 62 |  | CCOC(=O)c1nc(/C=C/c2ccccc2)nc(Nc2cc(C)n[nH]2)c1[N+](=O)[O-] [Example 17, ethyl 6-[(3-methyl-1H-pyrazol-5-yl)amino]-5-nitro-2-[(E)-2-phenylvinyl]pyrimidine-4-carboxylate] | 93 |  |
| 100 |  | CCOC(=O)c1nc(/C=C/c2ccc(C)cc2)nc(Nc2cc(C)n[nH]2)c1N [Example 21, ethyl 5-amino-2-[(E)-2-(4-methylphenyl)vinyl]-6-[(3-methyl-1H-pyrazol-5-yl)amino]pyrimidine-4-carboxylate] | 93 |  |
|  | 100 | 2-(4-methoxystyryl)-N-(5-methyl-1H-pyrazol-3-yl)-6-(4-methylpiperazin-1-yl)pyrimidin-4-amine [Example 161] |  | 93 |
| 95 |  | Cc1ccc(/C=C/c2nc(Nc3cc(C)[nH]n3)c([N+](=O)[O-])c(N3CCN(C)CC3)n2)cc1 [Example 169] |  |  |
| 80 |  | COC(=O)c1ccc(/C=C/c2nc(Cl)c([N+](=O)[O-])c(Nc3cc(C)[nH]n3)n2)cc1 [Example 37, methyl 4-((E)-2-{4-chloro-6-[(3-methyl-1H-pyrazol-5-yl)amino]-5-nitropyrimidin-2-yl}vinyl)benzoate] |  |  |
| 100 |  | Cc1cc(Nc2cc(Nc3ccccc3)nc(/C=C/c3ccccc3)n2)n[nH]1 [Example 82, N^4-(5-methyl-1H-pyrazol-3-yl)-N^6-phenyl-2-styrylpyrimidine-4,6-diamine] | 98 |  |
| 77 |  | CCOC(=O)c1nc(/C=C/c2ccc(C(F)(F)F)cc2)nc(Nc2cc(C)n[nH]2)c1N [Example 20, ethyl 5-amino-6-[(3-methyl-1H-pyrazol-5-yl)amino]-2-{(E)-2-[4-(trifluoromethyl)phenyl]vinyl}pyrimidine-4-carboxylate] | 97 |  |
| 91 |  | Cc1cc(Nc2nc(/C=C/c3ccccc3)nc(N3CCN(C)CC3)c2[N+](=O)[O-])[nH]n1 [Example 4, 6-(4-methylpiperazin-1-yl)-N-(3-methyl-1H-pyrazol-5-yl)-5-nitro-2-[(E)-2-phenylvinyl]pyrimidin-4-amine] | 87 |  |
| 100 |  | Cc1cc(Nc2nc(/C=C/c3ccccc3)nc(C(=O)NCCN3CCOCC3)c2N)[nH]n1 [Example 25, N-(2-morphholin-4-ylethyl)-5-amino-6-[(3-methyl-1H-pyrazol-5-yl)amino]-2-[(E)-2-phenylvinyl]pyrimidine-4-carboxamide] | 95 |  |
| 89 |  | Cc1cc(Nc2nc(/C=C/c3ccc(Cl)cc3)nc(N3CCN(C)CC3)c2[N+](=O)[O-])n[nH]1 [Example 171] |  |  |
| 100 |  | Cc1cc(Nc2cc(OCCN(C)C)nc(/C=C/c3ccccc3)n2)n[nH]1 [Example 69] | 99 |  |
| 100 |  | Cc1cc(Nc2nc(/C=C/c3ccccc3)nc(C(=O)OC3CCN(C)CC3)c2N)[nH]n1 [Example 24, 1-methylpiperidin-4-yl 5-amino-6-[(3-methyl-1H-pyrazol-5-yl)amino]-2-[(E)-2-phenylvinyl]pyrimidine-4-carboxylate] | 99 |  |
| 98 |  | Cc1cc(Nc2nc(/C=C/c3ccccc3)nc(N3CCCCC3)c2N)[nH]n1 [Example 14, N-(3-methyl-1H-pyrazol-5-yl)-6-(piperidin-1-yl)-2-[(E)-2-phenylvinyl]pyrimidin-4,5-diamine] |  |  |

From US7563787B2, “Substituted pyrazole compounds” (Miikana Therapeutics, Inc., priority 2005, dated 2009)
